This test addresses T1, truncated human SQS (Homo sapiens, UniProt P37268).
T1 construct: truncated human squalene synthase (SQS 31-370) in pET28a expression vector; made in house; host or cells: Escherichia coli BL21-Gold (DE3)
T1 sequence (P37268 31-370): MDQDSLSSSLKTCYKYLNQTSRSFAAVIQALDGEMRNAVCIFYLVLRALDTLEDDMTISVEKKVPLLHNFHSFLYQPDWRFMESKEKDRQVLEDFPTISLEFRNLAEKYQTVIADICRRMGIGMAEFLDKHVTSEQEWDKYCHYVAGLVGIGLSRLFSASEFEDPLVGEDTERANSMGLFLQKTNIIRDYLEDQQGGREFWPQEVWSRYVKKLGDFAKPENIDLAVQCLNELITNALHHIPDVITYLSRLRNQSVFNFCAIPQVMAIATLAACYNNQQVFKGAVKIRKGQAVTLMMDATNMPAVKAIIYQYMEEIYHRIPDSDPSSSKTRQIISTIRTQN
In words: SQS competition assay with purified truncated SQS, FIN56 and active probe. In kind it is binding. The settings on record: pre-incubation with 100 μM FIN56 for two hours. The procedure:
Bacterial expression and purification of truncated human SQS for competition assay. The plasmid encoding the truncated human squalene synthase (SQS 31-370) in pET28a expression vector, kindly provided by Chia-I Liu and Andrew H. J. Wang (Academia Sinica, Taiwan), was confirmed by DNA sequencing (Gene Wiz, Inc.) and then used to transform Escherichia coli BL21-Gold (DE3) competent cells (Agilent Technologies). The cells with the construct were grown in LB media supplemented with 100 μg/mL […] at 37° C. until the OD600 reached 1. Protein expression was induced with 0.5 mM isopropyl β-D-thiogalactoside at 17° C. overnight (12-13 h). Cells were pelleted (4,000 g, 20 min, 4° C.) and lysed by sonication in SQS buffer (50 mM Tris, pH 7.4, 250 mM NaCl, 5 mM imidazole, 5 mM MgCl2, 1 mM TCEP). Cell lysate was then centrifuged at 15,000 g for 45 min at 4° C. The supernatant was loaded onto a chromatography column containing Ni Sepharose 6 Fast Flow beads (GE Life Sciences) equilibrated with SQS buffer. After two washes and one nonspecific wash of the beads, the bound SQS was eluted with 250 mM imidazole in the same buffer. The purity of eluted fractions was verified by SDS-PAGE as more than 90% pure. The fractions containing SQS were concentrated, flash-frozen, and stored at −80° C.
SQS competition assay with purified truncated SQS, FIN56, and active probe. […]

For `O=S(=O)(NC1CCCCC1)c1ccc2c(c1)C(=NO)c1cc(S(=O)(=O)NC3CCCCC3)ccc1-2` [FIN56, N2,N7-dicyclohexyl-9-(hydroxyimino)-9H-fluorene-2,7-disulfonamide], the “competition of SQS binding to active affinity probe” value was “efficiently suppressed”.
